# Test results: PubChem BioAssay AID248 (DTP/NCI, 2004)
# Values joined by “and” are separate entries in the source; they are usually repeats but may differ in a detail not shown here. Equal values may be shown once. Inconclusive results and toxic doses are left out.
# System: L1210 leukemia ip in BDF1 mice, survival T/C
# Test: NCI In Vivo Anticancer Drug Screen. Data for tumor model L1210 Leukemia (intraperitoneal) in B6D2F1 (BDF1) mice
# Settings: endpoint: mean survival time, higher = longer survival
# Procedure, shortened: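 Tumor cells were implanted, animals were treated, and survival was followed. The result divides the treated measurement by the vehicle-control measurement.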
# [1] = dose: 100.0 mg/kg/injection, schedule: Q01DX001 (ip), vehicle: saline
# [2] = dose: 200.0 mg/kg/injection, schedule: Q01DX001 (ip), vehicle: saline
# [3] = dose: 400.0 mg/kg/injection, schedule: Q01DX001 (ip), vehicle: saline
# [4] = dose: 100.0 mg/kg/injection, schedule: Q04DX003 (ip), vehicle: saline with Tween-80
# [5] = dose: 200.0 mg/kg/injection, schedule: Q04DX003 (ip), vehicle: saline with Tween-80
# [6] = dose: 400.0 mg/kg/injection, schedule: Q04DX003 (ip), vehicle: saline with Tween-80
# [7] = dose: 100.0 mg/kg/injection, schedule: Q01DX009 (ip), vehicle: Klucel (hydroxypropylcellulose) (HPC)
# [8] = dose: 200.0 mg/kg/injection, schedule: Q01DX009 (ip), vehicle: Klucel (hydroxypropylcellulose) (HPC)
# [9] = dose: 400.0 mg/kg/injection, schedule: Q01DX009 (ip), vehicle: Klucel (hydroxypropylcellulose) (HPC)
smiles,measurement,setting,value
CCn1cnc2c(SC)nc(N)nc21,T/C,"dose: 37.5 mg/kg/injection, schedule: Q01DX009 (ip), vehicle: Klucel (hydroxypropylcellulose) (HPC)",101 % of control
same,T/C,"dose: 50.0 mg/kg/injection, schedule: Q04DX003 (ip), vehicle: other",101 % of control
same,T/C,"dose: 75.0 mg/kg/injection, schedule: Q01DX009 (ip), vehicle: Klucel (hydroxypropylcellulose) (HPC)",103 % of control
same,T/C,"dose: 100.0 mg/kg/injection, schedule: Q04DX003 (ip), vehicle: other",104 % of control
same,T/C,"dose: 150.0 mg/kg/injection, schedule: Q01DX009 (ip), vehicle: Klucel (hydroxypropylcellulose) (HPC)",108 % of control
same,T/C,"dose: 200.0 mg/kg/injection, schedule: Q04DX003 (ip), vehicle: other",87 % of control
Nc1ncnc2c1nc1n2C2OC(CO)C(O)C2O1 (stereo not given),T/C,[1],111 % of control
same,T/C,[2],109 % of control
same,T/C,[3],111 % of control
COC(=O)/C(=C\c1ccncc1)c1cccc2ccccc12,T/C,[4],104 % of control
same,T/C,[5],100 % of control
same,T/C,[6],94 % of control
Cn1nnc2nnc(-c3ccccc3)n21,T/C,"dose: 100.0 mg/kg/injection, schedule: Q01DX009 (ip), vehicle: saline with Tween-80",100 % of control
same,T/C,[4],95 % of control
same,T/C,"dose: 200.0 mg/kg/injection, schedule: Q01DX009 (ip), vehicle: saline with Tween-80",94 % of control
same,T/C,[5],106 % of control
same,T/C,"dose: 400.0 mg/kg/injection, schedule: Q01DX009 (ip), vehicle: saline with Tween-80",108 % of control
same,T/C,[6],98 % of control
O=C(CCCC(=O)NNC(=O)Nc1ccc(Br)cc1)NNC(=O)Nc1ccc(Br)cc1,T/C,"dose: 50.0 mg/kg/injection, schedule: Q01DX001 (ip), vehicle: saline",93 % of control
same,T/C,[1],100 % of control
same,T/C,[2],96 % of control
same,T/C,[3],96 % of control
O=C(O)CCC(=O)Nc1cccc(C(F)(F)F)c1,T/C,[7],103 % of control
same,T/C,[8],105 % of control
same,T/C,[9],100 % of control
COc1cc2c3c(c4ccc(OC)c(OC)c4c2cc1OC)CN1CCC[C@@H]1C3,T/C,"dose: 1.25 mg/kg/injection, schedule: Q01DX Z (im), vehicle: water",103 % of control
same,T/C,"dose: 1.25 mg/kg/injection, schedule: Q01DX Z (ip), vehicle: water",103 % of control
same,T/C,"dose: 1.25 mg/kg/injection, schedule: Q01DX Z (sc), vehicle: water",106 % of control
same,T/C,"dose: 1.25 mg/kg/injection, schedule: Q02DX Z (ip), vehicle: water",105 % of control
same,T/C,"dose: 2.2 mg/kg/injection, schedule: Q01DX Z (ip), vehicle: carboxymethylcellulose (CMC)",111 % of control
same,T/C,"dose: 2.2 mg/kg/injection, schedule: Q01DX Z (ip), vehicle: other",107 % of control
same,T/C,"dose: 2.5 mg/kg/injection, schedule: Q01DX Z (im), vehicle: water",111 % of control
same,T/C,"dose: 2.5 mg/kg/injection, schedule: Q01DX Z (ip), vehicle: water",94 % of control and 106 % of control
same,T/C,"dose: 2.5 mg/kg/injection, schedule: Q01DX Z (sc), vehicle: water",106 % of control
same,T/C,"dose: 2.5 mg/kg/injection, schedule: Q02DX Z (ip), vehicle: water",109 % of control
same,T/C,"dose: 2.5 mg/kg/injection, schedule: Q03DX Z (ip), vehicle: water",105 % of control
same,T/C,"dose: 4.0 mg/kg/injection, schedule: Q01DX Z (ip), vehicle: water",94 % of control
same,T/C,"dose: 4.4 mg/kg/injection, schedule: Q01DX Z (ip), vehicle: carboxymethylcellulose (CMC)",114 % of control and 117 % of control
same,T/C,"dose: 5.0 mg/kg/injection, schedule: Q01DX005 (iv), vehicle: water",106 % of control
same,T/C,"dose: 5.0 mg/kg/injection, schedule: Q01DX Z (im), vehicle: water",118 % of control
same,T/C,"dose: 5.0 mg/kg/injection, schedule: Q01DX Z (ip), vehicle: water",103 % of control and 117 % of control and 124 % of control
same,T/C,"dose: 5.0 mg/kg/injection, schedule: Q01DX Z (oral), vehicle: water",112 % of control and 115 % of control
same,T/C,"dose: 5.0 mg/kg/injection, schedule: Q01DX Z (sc), vehicle: water",122 % of control
same,T/C,"dose: 5.0 mg/kg/injection, schedule: Q02DX Z (ip), vehicle: water",95 % of control and 103 % of control
same,T/C,"dose: 5.0 mg/kg/injection, schedule: Q03DX Z (ip), vehicle: water",103 % of control and 106 % of control
same,T/C,"dose: 6.0 mg/kg/injection, schedule: Q01DX Z (ip), vehicle: water",109 % of control
same,T/C,"dose: 6.6 mg/kg/injection, schedule: Q01DX Z (ip), vehicle: carboxymethylcellulose (CMC)",117 % of control and 118 % of control
same,T/C,"dose: 6.6 mg/kg/injection, schedule: Q01DX Z (ip), vehicle: other",117 % of control
same,T/C,"dose: 7.5 mg/kg/injection, schedule: Q01DX Z (ip), vehicle: water",115 % of control
same,T/C,"dose: 8.0 mg/kg/injection, schedule: Q01DX Z (ip), vehicle: water",97 % of control and 101 % of control
same,T/C,"dose: 9.0 mg/kg/injection, schedule: Q01DX Z (ip), vehicle: water",120 % of control
same,T/C,"dose: 10.0 mg/kg/injection, schedule: Q01DX005 (iv), vehicle: water",114 % of control
same,T/C,"dose: 10.0 mg/kg/injection, schedule: Q01DX Z (im), vehicle: water",97 % of control
same,T/C,"dose: 10.0 mg/kg/injection, schedule: Q01DX Z (ip), vehicle: water",117 % of control
same,T/C,"dose: 10.0 mg/kg/injection, schedule: Q01DX Z (sc), vehicle: water",100 % of control
same,T/C,"dose: 10.0 mg/kg/injection, schedule: Q02DX Z (ip), vehicle: water",111 % of control and 112 % of control
same,T/C,"dose: 10.0 mg/kg/injection, schedule: Q02DX Z (oral), vehicle: water",121 % of control
same,T/C,"dose: 12.0 mg/kg/injection, schedule: Q01DX Z (ip), vehicle: water",114 % of control and 122 % of control
same,T/C,"dose: 12.5 mg/kg/injection, schedule: Q01DX Z (ip), vehicle: water",120 % of control
same,T/C,"dose: 15.0 mg/kg/injection, schedule: Q01DX Z (ip), vehicle: other",151 % of control
same,T/C,"dose: 15.0 mg/kg/injection, schedule: Q01DX Z (ip), vehicle: water",95 % of control
same,T/C,"dose: 20.0 mg/kg/injection, schedule: Q01DX001 (ip), vehicle: water",106 % of control
same,T/C,"dose: 20.0 mg/kg/injection, schedule: Q01DX Z (ip), vehicle: water",98 % of control and 104 % of control
same,T/C,"dose: 20.0 mg/kg/injection, schedule: Q07DX003 (ip), vehicle: water",123 % of control
same,T/C,"dose: 22.0 mg/kg/injection, schedule: Q01DX Z (ip), vehicle: carboxymethylcellulose (CMC)",92 % of control
same,T/C,"dose: 30.0 mg/kg/injection, schedule: Q01DX001 (ip), vehicle: water",114 % of control
same,T/C,"dose: 30.0 mg/kg/injection, schedule: Q02DX Z (ip), vehicle: water",120 % of control
same,T/C,"dose: 30.0 mg/kg/injection, schedule: Q02DX Z (oral), vehicle: water",90 % of control
same,T/C,"dose: 30.0 mg/kg/injection, schedule: Q03DX Z (ip), vehicle: water",124 % of control
same,T/C,"dose: 30.0 mg/kg/injection, schedule: Q07DX003 (ip), vehicle: water",103 % of control
same,T/C,"dose: 33.0 mg/kg/injection, schedule: Q01DX Z (ip), vehicle: carboxymethylcellulose (CMC)",114 % of control
same,T/C,"dose: 40.0 mg/kg/injection, schedule: Q01DX001 (ip), vehicle: water",114 % of control
same,T/C,"dose: 40.0 mg/kg/injection, schedule: Q01DX Z (ip), vehicle: water",98 % of control and 102 % of control
same,T/C,"dose: 40.0 mg/kg/injection, schedule: Q01DX Z (oral), vehicle: water",92 % of control
same,T/C,"dose: 40.0 mg/kg/injection, schedule: Q03DX Z (ip), vehicle: water",88 % of control
same,T/C,"dose: 80.0 mg/kg/injection, schedule: Q01DX001 (ip), vehicle: saline",117 % of control
same,T/C,"dose: 80.0 mg/kg/injection, schedule: Q07DX Z (ip), vehicle: saline",114 % of control
same,T/C,"dose: 160.0 mg/kg/injection, schedule: Q07DX Z (ip), vehicle: saline",105 % of control
O=C(O)c1cc(Br)ccc1I,T/C,"dose: 100.0 mg/kg/injection, schedule: Q04DX002 (ip), vehicle: Klucel (hydroxypropylcellulose) (HPC)",104 % of control
same,T/C,"dose: 200.0 mg/kg/injection, schedule: Q04DX002 (ip), vehicle: Klucel (hydroxypropylcellulose) (HPC)",97 % of control
same,T/C,"dose: 400.0 mg/kg/injection, schedule: Q04DX002 (ip), vehicle: Klucel (hydroxypropylcellulose) (HPC)",101 % of control
O=C(O)c1ccccc1C(=O)c1ccc2c3c(cccc13)CC2,T/C,[7],104 % of control
same,T/C,"dose: 100.0 mg/kg/injection, schedule: Q04DX003 (ip), vehicle: Klucel (hydroxypropylcellulose) (HPC)",107 % of control
same,T/C,[8],107 % of control
same,T/C,"dose: 200.0 mg/kg/injection, schedule: Q04DX003 (ip), vehicle: Klucel (hydroxypropylcellulose) (HPC)",102 % of control
same,T/C,[9],105 % of control
same,T/C,"dose: 400.0 mg/kg/injection, schedule: Q04DX003 (ip), vehicle: Klucel (hydroxypropylcellulose) (HPC)",100 % of control
C/C=C/C(O)(C(=O)OCC)C(C)C (stereo not given),T/C,[1],111 % of control
same,T/C,[2],96 % of control
same,T/C,[3],100 % of control
